Measured values reported in publication PMC5815658 (Journal of Medicinal Chemistry, 2017).
Values after ≈ are worked out from the molar mass of the structure shown.

Experiments:
[1] = Kinetic solubility determination by RP-HPLC; settings: PBS, pH 7.4, aqueous buffer, kinetic from dmso stock
Experimental: Kinetic Solubility Determination
Kinetic Solubility values were determined via an in-house RP-HPLC method. Calibration standards were prepared at a
concentration of 100 M in 100 % DMSO. Calibration was achieved by injecting 0.5, 2.5 and 5 L of the 100 M standard.
The supernatant was removed and a small
volume of DMSO was added to ensure the compound remained in solution. Kinetic solubility values were determined by
substituting the AUC (Area Under the Curve) of the kinetic solubility samples into the equation obtained from the linear part of
Injections (with needle wash) of the calibration and kinetic solubility samples were made onto a Phenomenex Kinetex C18
column (5 µm, 50 mm x 4.6 mm, 100A, Phenomenex, Torrence, USA). Chromatographic separation at 30 °C was carried out
modified with 0.1 % formic acid) at a flow rate of 1.5 mL/min.
array detector (Agilent, Santa Clara, USA). Raw data was processed using Agilent Chemstation Rev.C.01.05.8. The data was then […]
LogD7.4 values were determined via an in-house RP-HPLC method based on previous work by Kerns and Di.4 Calibration was […]
by comparing HPLC-determined Log D7.4 values of two other commercially-available drugs with literature Log D7.4 values. […]
HPLC Log D7.4 values of in-house compounds were determined by substituting the compounds’ retention times into the equation […]

[2] = PDP aqueous stability protocol; settings: 37 °C
Experimental: PDP Aqueous Stability Protocol.
1) Using 1000 µL pipette, dispense 990 µL of pH 7.4 PBS buffer into a 1.5 mL micro centrifuge tube. Using 10 µL pipette,
add 10 µL of a freshly prepared 10 mM compound DMSO stock solution into the PBS buffer.
2) Mix for 5 seconds on vortex mixer to create 100 µM stock solution.
3) Agitate 100 µM stock solution (500 rpm, Bohdan Shaker) for 120 minutes at room temperature and the centrifuge for 15
4) Using a 1000 µL pipette approx. 700 µL was carefully decanted from the micro centrifuge tube and put into a vial to
5) To produce a t = 0 sample; using a 200 µL pipette, 50 µL of DMSO was dispensed into insert vial. Then, using a 200 µL
pipette, 200 µL from solution A was added into the insert vial and vortexed for 5 seconds to produce a sample for HPLC
6) The vial containing solution A was then warmed to 37 °C, with stirring, and aliquots were taken at regular time intervals
using the same procedure as described in step 5.
Assuming first-order decay:

[3] = target: T1, pirin (Homo sapiens, UniProt O00625); experiment: TMT MS2 whole proteome mass spectrometry in SK-OV-3 cells; format: cell-based; set-up: endogenous in cells; host or cells: SK-OV-3; settings: 50 nM, 4 h
T1 sequence (O00625 1-290): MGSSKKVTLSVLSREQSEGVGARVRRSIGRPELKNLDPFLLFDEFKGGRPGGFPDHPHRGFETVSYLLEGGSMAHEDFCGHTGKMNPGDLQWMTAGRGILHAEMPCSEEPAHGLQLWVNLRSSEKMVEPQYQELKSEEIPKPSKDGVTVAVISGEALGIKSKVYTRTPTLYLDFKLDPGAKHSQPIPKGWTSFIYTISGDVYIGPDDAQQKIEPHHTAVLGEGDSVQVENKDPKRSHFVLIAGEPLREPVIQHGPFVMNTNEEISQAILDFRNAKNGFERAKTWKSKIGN
Experimental: PDP 16 Quantified Mass Spectrometry in SK-OV-3 Cells
SK-OV-3 cells (enough to yield 50μg total protein per sample) treated with DMSO control or 50nM PDP 16 for 4 h. Cells were then harvested and lysed by scraping in urea lysis buffer (20mM HEPES pH 8.0, 9M urea, 1mM sodium orthovanadate, 2.5mM sodium pyrophosphate, 1mM β-glycerophosphate). Samples were sonicated and cent rifuged at 20,000 x g for 15 min and the protein extract (supernatant) collected . The experiment was performed in triplicates. The protein extract samples (supernatant) were then sent to www.proteomics.com, (Accessed September 7, 2017) for analysis.
Proteome Sciences’ proprietary TMT®MS2 workflow was applied for the analysis of total proteomic protein expression. In addition, Proteome Sciences’ bioinformatics tools were applied for data normalization, data integration and statistical analysis .
We identified 107318 unique peptides and 8 785 unique protein groups. This coverage of the proteome is within our normal range for peptide and protein identifications in cell line samples. […]
component analysis (PCA) plots explaining ~64% o f the variance of statistically significant features at peptide level. This observation was consistent with the result at protein level.
Using Proteome Sciences’ proprietary TMT®MS2 workflow on a cohort of SK-OV-3 cell line samples derived from ICR’s pirin degradation probe (n=3) and DMSO control (n=3). A reference sample was created from pooling the other samples.
PAGE confirming a good sample quality. Thus, all samples were processed following TMT®MS2 workflow.
All LC-MS/MS runs passed internal quality assessments, based on total ion counts (TICs) and number of peptide spectral matches (PSMs), considering the MS method to be used for data acquisition. Labelling efficiency was over 98.5% across all fractions.
TMT®MS2 identified 8785 unique protein groups from 107318 unique peptide sequences. This is within the typical range of protein and peptide identifications from cell line samples.
Total Peptide Spectral Match: 316215
Total Unique Peptide Sequences: 107318
Total Unique Protein IDs: 8785
Median Standard Deviation and Inter Quartile Range (IQR) were measured for each sample. […]
Protein solutions of SK -OV-3 cell line samples derived from ICR’s pirin degradation probe (n=3) and DMSO control (n=3) were provided in 9M urea 20 mM HEPES, 1 mM activated sodium orthovanadate, 2.5 mM sodium pyrophosphate, 1 mM b-glycerol-phosphate at pH 8.0. […] The protein concentration of the supernatant was determined by Bradford protein assay and each sample visualized by Coomassie stained (Imperial Stain, Pierce) SDS-PAGE 4-20% gradient gels (Criterion, Biorad) using 10 µg of each sample. […]

O=C1CCC(N2C(=O)c3cccc(OCCOCCOCCN4CCN(Cc5ccc6cc(C(=O)Nc7cc(NC(=O)c8ccc9c(c8)OCCO9)ccc7Cl)ccc6n5)CC4)c3C2=O)C(=O)N1 (centres unmarked) [PDP 16, N-(2-Chloro-5-(2,3-dihydrobenzo[b][1,4]dioxine-6-carboxamido)phenyl)-2-((4-(2-(2-(2-((2-(2,6-dioxopiperidin-3-yl)-1,3-dioxoisoindolin-4-yl)oxy)ethoxy)ethoxy)ethyl)piperazin-1-yl)methyl)quinoline-6-carboxamide]
solubility kinetic at 120 min [1]: 2 µM (≈ 1.89 µg/mL) | First-order decay rate constant ([2]; pH 7.4 PBS, n=2, Figure S1): 0.0038 min⁻¹ | Half-life (aqueous stability) ([2]; pH 7.4 phosphate buffer): ~3 h | half-life at 100 µM ([2]; phosphate buffer (PBS), pH 7.4, Half-life (aqueous stability), pH 7.4 phosphate buffer): 3 h | Proteins with statistically significant (p(adj) < 0.05) difference in expression ([3]; 8547 quantifiable proteins): only pirin | P.Value pirin (PIR, O00625), PDP vs Veh ([3]; TMT): 1.64E-08 | Reduction of pirin protein expression vs vehicle ([3]; TMT): 2.3 fold | logFC pirin (PIR, O00625), PDP vs Veh ([3]; TMT): -1.208
